This is an account of results in patent US9993459B2, “Selective HDAC6 inhibitors and uses thereof” (Universiteit Gent, priority 2015, dated 2018).

One assay has as its target HDAC2 (Homo sapiens, UniProt Q92769). In words: In vitro HDAC isozyme selectivity screen: HDAC2. The note with it: for IC50: Table 2. Type of assay: biochemical.
Another assay has as its target T1, HDAC8 (Homo sapiens, UniProt Q9BY41).
T1 sequence (Q9BY41 1-377): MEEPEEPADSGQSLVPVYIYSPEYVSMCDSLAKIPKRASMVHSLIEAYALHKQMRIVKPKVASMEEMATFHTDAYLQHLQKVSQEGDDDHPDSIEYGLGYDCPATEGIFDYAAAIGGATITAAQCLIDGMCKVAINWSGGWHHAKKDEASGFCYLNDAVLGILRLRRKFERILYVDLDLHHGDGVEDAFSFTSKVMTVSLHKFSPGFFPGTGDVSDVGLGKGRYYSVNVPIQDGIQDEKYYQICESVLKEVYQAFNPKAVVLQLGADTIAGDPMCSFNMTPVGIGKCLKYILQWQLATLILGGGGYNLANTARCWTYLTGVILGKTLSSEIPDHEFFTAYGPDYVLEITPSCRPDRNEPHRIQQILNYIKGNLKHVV
The assay can be described thus: In vitro HDAC isozyme selectivity screen: HDAC8. Type of assay: biochemical. The note with it: for IC50: Table 2.

For a further assay, the target named is T2, HDAC10 (Homo sapiens, UniProt Q969S8).
T2 sequence (Q969S8 1-669): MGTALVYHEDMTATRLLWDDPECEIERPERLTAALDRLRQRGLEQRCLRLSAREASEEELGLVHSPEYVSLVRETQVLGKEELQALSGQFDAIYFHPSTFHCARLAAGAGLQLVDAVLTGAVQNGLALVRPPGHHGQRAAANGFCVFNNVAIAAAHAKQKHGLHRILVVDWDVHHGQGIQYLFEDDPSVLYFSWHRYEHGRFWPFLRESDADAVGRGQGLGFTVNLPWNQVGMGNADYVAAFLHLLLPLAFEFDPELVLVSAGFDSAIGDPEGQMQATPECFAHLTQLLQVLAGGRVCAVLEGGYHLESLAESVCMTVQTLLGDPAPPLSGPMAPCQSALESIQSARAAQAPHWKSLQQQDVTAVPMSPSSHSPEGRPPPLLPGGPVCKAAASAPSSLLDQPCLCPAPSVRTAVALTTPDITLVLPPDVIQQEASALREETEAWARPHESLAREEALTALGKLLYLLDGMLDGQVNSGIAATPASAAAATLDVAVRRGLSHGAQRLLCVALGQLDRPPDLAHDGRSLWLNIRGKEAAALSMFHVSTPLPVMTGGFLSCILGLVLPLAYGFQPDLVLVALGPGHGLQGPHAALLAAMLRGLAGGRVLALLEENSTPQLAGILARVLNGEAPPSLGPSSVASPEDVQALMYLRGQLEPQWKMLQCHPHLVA
In words: In vitro HDAC isozyme selectivity screen: HDAC10. Type of assay: biochemical. The conditions noted are these: Table 2.

Assay [1] relates to acetylation of α-tubulin in Neuro-2a cells. The assay can be described thus: Acetylation level of α-tubulin in Neuro-2a cells (Western blot). It counts as cell-based, Mouse. The conditions noted are these: for normalized ratio Acetyl α-Tubulin/α-Tubulin against Tubastatin A, Average: Average of N = 1 to 4; for effect on the acetylation level of α-tubulin compared with Tubastatin A: Neuro-2a cells, in words. How it is done:
FIG. 1: Potency of inhibiting HDAC6 by compounds 7a, 7b and 13a in Neuro-2a cells. A. Cells were treated overnight with different concentrations of the HDAC6 inhibitors and blotted of the acetylation of α-tubulin.
Mouse neuroblastoma (Neuro-2a) cells were grown in a 1:1 mix of D-MEM (Dulbecco's Modified Eagle Medium) and F12 medium supplemented with glutamax (Invitrogen), 100 μg/ml streptomycin, 100 U/ml penicillin (Invitrogen), 10% fetal calf serum (Greiner Bio-one), 1% non-essential amino acids (Invitrogen) and 1.6% NaHCO3 (Invitrogen) at 37° C. and 7.5% CO2. To split the cells, cells were washed with Versene (Invitrogen) and dissociated with 0.05% Trypsine-EDTA (Invitrogen).
For sodium dodecyl sulfate-polyacrylamide gel electrophoresis (SDS-PAGE) analysis, transfected cells were collected using the EpiQuik Total Histone Extraction Kit (EpiGentek) according to manufacturer's instructions. Protein concentrations were determined using microBCA kit (Thermo Fisher Scientific Inc., Pittsburgh, Pa., USA) according to manufacturer's instructions. Before resolving the samples on a 12% SDS-PAGE gel, samples containing equal amounts of protein were supplemented with reducing sample buffer (Thermo Scientific) and boiled at 95° C. for 5 min. After electrophoresis, the proteins were transferred to a polyvinylidene difluoride (PVDF) membrane (Millipore Corp., Bedford, Mass., USA). The non-specific binding was blocked by incubation of the membrane in 5% bovine serum albumin (BSA), diluted in Tris Buffered Saline Tween (TBST, 50 mM TRIS, 150 mM NaCl, 0.1% Tween-20 (Applichem, Darmstadt, Duitsland) for 1 h at room temperature followed by incubation with primary antibodies overnight. The antibodies, diluted in TBS-T, were directed against α-tubulin (1/5000, T6199, Sigma-Aldrich), and acetylated α-tubulin (1/5000, T6793 monoclonal, Sigma-Aldrich). The secondary antibodies, coupled to alkaline phosphatase (anti-mouse or anti-rabbit, 1/5000, Sigma-Aldrich) were used. Blots were visualised by adding the ECF substrate (Enhanced Chemical Fluorescence, GE Healthcare, Uppsala, Sweden) and imaged with the ImageQuant_LAS 4000. A mild reblotting buffer (Millipore) was applied to strip the blots. ImageQuant TL version 7.0-software was used to quantify the blots.
Neuro-2a cells were treated overnight with different concentrations of the HDAC6 inhibitors and the effect on the acetylation level of α-tubulin was determined using Western blots (FIG. 1).
Background: Immunoblotting shows a protein as a band on a membrane.

Values joined by “and” are separate entries in the source; they are usually repeats but may differ in a detail not shown here. Equal values may be shown once.

HDAC2, sequence (Q92769 whole entry, species assumed): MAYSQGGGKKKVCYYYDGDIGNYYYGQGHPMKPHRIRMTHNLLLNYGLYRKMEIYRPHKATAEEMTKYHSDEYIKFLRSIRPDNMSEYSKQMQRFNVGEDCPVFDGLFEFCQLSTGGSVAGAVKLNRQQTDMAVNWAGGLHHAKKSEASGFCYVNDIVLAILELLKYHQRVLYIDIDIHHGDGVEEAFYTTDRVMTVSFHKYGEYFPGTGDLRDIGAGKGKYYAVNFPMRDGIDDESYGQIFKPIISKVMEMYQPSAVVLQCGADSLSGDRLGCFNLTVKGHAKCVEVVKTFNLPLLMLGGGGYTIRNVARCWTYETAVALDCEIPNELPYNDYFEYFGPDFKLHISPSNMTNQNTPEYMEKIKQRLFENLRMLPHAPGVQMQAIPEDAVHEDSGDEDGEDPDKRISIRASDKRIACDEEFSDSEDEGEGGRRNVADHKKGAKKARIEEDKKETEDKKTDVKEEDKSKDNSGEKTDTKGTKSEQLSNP

As for `O=C(NO)c1ccc(NCc2csc3ccccc23)cc1` [Compound 7a, 3-[(4-hydroxycarbamoylphenyl)aminomethyl]benzothiophene], the IC50 against HDAC2 was found to be 30 µM; against HDAC8, 1.4 µM; against HDAC10 it was 9.9 µM. Moreover, the “normalized ratio Acetyl α-Tubulin/α-Tubulin against Tubastatin A, Average” value in assay [1] (10 nM, overnight, Neuro-2a) was found to be 24.02; in assay [1] (50 nM, overnight, Neuro-2a), 46.70; in assay [1] (100 nM, overnight, Neuro-2a), 67.40; in assay [1] (500 nM, overnight, Neuro-2a), 139.23; in assay [1] (1 μM, overnight, Neuro-2a) it was 90.45. For the same molecule, in assay [1], the “effect on the acetylation level of α-tubulin compared with Tubastatin A” value is recorded as “same effect on the acetylation level of α-tubulin as Tubastatin A”.

Turning to `O=C(NO)c1ccc(NCc2csc3ccc(Br)cc23)cc1` [Compound 7b, 5-bromo-3-[(4-hydroxycarbamoylphenyl)aminomethyl]-benzothiophene], the “effect at 100 μM, HDAC2” value on HDAC2 (100 μM) is “less than 50%”. For the same molecule, the figures for the IC50 on HDAC2, at HDAC8 and against HDAC10 were greater than 100 µM, 2.1 µM and 33 µM, respectively. In addition, the “selectivity for HDAC6 over HDAC8” value on HDAC8 (HDAC8 vs HDAC6 IC50) is reported as 57 fold. The “normalized ratio Acetyl α-Tubulin/α-Tubulin against Tubastatin A, Average” value came to 8.35 in assay [1] (10 nM, overnight, Neuro-2a); 15.75 in assay [1] (50 nM, overnight, Neuro-2a); 27.24 in assay [1] (100 nM, overnight, Neuro-2a); 63.70 in assay [1] (500 nM, overnight, Neuro-2a); 83.19 in assay [1] (1 μM, overnight, Neuro-2a). Moreover, the “normalized ratio Acetyl α-Tubulin/α-Tubulin against Tubastatin A” value in assay [1] (1 μM, overnight, Neuro-2a, single experiments N = 1 to 4, Tub A 1 μM = 100) is 99.53 and 83.22 and 69.97 and 80.03. For the same molecule, in assay [1], the “effect on the acetylation level of α-tubulin compared with Tubastatin A” value is “same effect on the acetylation level of α-tubulin as Tubastatin A”.

Take `O=C(NO)c1ccc(NCc2csc3cc(Br)ccc23)cc1` [Compound 13a, 6-bromo-3-[(4-hydroxycarbamoylphenyl)aminomethyl]-benzothiophene]: the values for the IC50 against HDAC2, against HDAC8 and at HDAC10 were 20 µM, 1.9 µM and 7.6 µM, respectively. Besides, the “normalized ratio Acetyl α-Tubulin/α-Tubulin against Tubastatin A, Average” value in assay [1] (10 nM, overnight, Neuro-2a) was determined as 8.35; in assay [1] (50 nM, overnight, Neuro-2a), 13.93; in assay [1] (100 nM, overnight, Neuro-2a) it was 23.21; in assay [1] (500 nM, overnight, Neuro-2a), 69.97; in assay [1] (1 μM, overnight, Neuro-2a), 80.44.

As usually defined, the IC50 is the point on the concentration scale where inhibition reaches its midpoint. A low value points to inhibition by little substance.
